# Experimental data as given in patent US20100087481A1, “ORAL PHARMACEUTICAL FORMULATIONS FOR ANTIDIABETIC COMPOUNDS” (priority 2008, published 2010).
# Read-outs that look alike come from different tables or passages of the source.
# Key:
# [1] = Solubility in selected oil-based media; type: physicochemical; details: oil or lipid, read-out: Solubility, Concentration
# [2] = Chemical stability in selected oil-based media; type: physicochemical
# Method: Studies were performed over a 2 week period at −20° C., 2-8° C., 40° C./75% RH and 60° C. At the elevated temperatures, chemical stability was monitored in the presence and absence of argon. Additionally, the pH stability of the drug was assessed over a seven week period at 40° C./75% RH, pH 2, 3, 5, 7, 9, and 10. […] In oil-based media containing neat Capmul® MCM or phosphatidylcholine (Phospholipon® 90G, Phosal® 53 MCT), drug recovery was >99%. […] The degradation observed in Capmul® MCM was inhibited by the addition of argon.
# [3] = Physical stability in selected oil-based media (visual); type: physicochemical
# Source text: Physical stability of the drug was monitored visually.
# [4] = in aqueous solvents and in most organic solvents; cited from earlier work
smiles,measurement,setting,value
"O=S(=O)(Nc1cc(Cl)c(Oc2cnc3ccccc3c2)c(Cl)c1)c1ccc(Cl)cc1Cl.O=S(=O)(O)c1ccccc1 [besylate salt of compound 101, 2,4-Dichloro-N-[3,5-dichloro-4-(quinolin-3-yloxy)-phenyl]-benzenesulfonamide benzenesulfonate salt]",solubility,"[1]; Capmul® MCM (oil-based medium), in Capmul ® MCM",16600 µg/mL
same,solubility,"[1]; Capmul® PG8 (oil-based medium), in Capmul ® PG8",2010 µg/mL
same,solubility,"[1]; Captex® 200 (oil-based medium), in Captex ® 200",450 µg/mL
same,solubility,"[1]; Captex® 300EP (oil-based medium), in Captex ® 300EP",280 µg/mL
same,solubility,"[1]; Captex® 355 (oil-based medium), in Captex ® 355",520 µg/mL
same,solubility,"[1]; Crodamol® (oil-based medium), in Crodamol ®",450 µg/mL
same,solubility,"[1]; Inwitor 742 (oil-based medium), in Inwitor 742",7930 µg/mL
same,solubility,"[1]; Labrafac® CC (oil-based medium), in Labrafac ® CC",290 µg/mL
same,solubility,"[1]; Labrafil® M 1944 CS (oil-based medium), in Labrafil ® M 1944 CS",2340 µg/mL
same,solubility,"[1]; Labrasol® (oil-based medium), in Labrasol ®",29200 µg/mL
same,solubility,"[1]; Maisine 35-I (oil-based medium), in Maisine 35-I",1160 µg/mL
same,solubility,"[1]; Miglyol® 132 (oil-based medium), in Miglyol ® 132",800 µg/mL
same,solubility,"[1]; Miglyol® 810N (oil-based medium), in Miglyol ® 810N",380 µg/mL
same,solubility,"[1]; Miglyol® 812N (oil-based medium), in Miglyol ® 812N",7930 µg/mL
same,solubility,"[1]; Peceol (oil-based medium), in Peceol",3940 µg/mL
same,solubility,"[1]; Phosal® 53 MCT (oil-based medium), in Phosal ® 53 MCT",43400 µg/mL
same,solubility,[1]; in Corn Oil,160 µg/mL
same,solubility,[1]; in Super-refined soybean oil,40 µg/mL
same,Drug degradation,[2]; in Capmul® MCM at 60° C.,7%
same,Effect of argon on degradation,"[2]; in Capmul® MCM, addition of argon",inhibited
same,Drug degradation,[2]; in Phosal® 53 MCT at 60° C.,no drug degradation
same,Degradation of the drug,"[2]; in the presence of Labrasol®, Capmul® MCM and Phospholipon® 90G, 40° C., 2-week period",little or no degradation
same,Physical stability (visual),[3]; addition of 47% Capmul® MCM to oil-based media containing Phospholipon® 90G,inhibited solid formation
same,Physical stability (visual),[3]; high concentrations of Capmul® (>80%),solidification and cloudiness
same,Physical stability (visual),[3]; warming then cooling compositions with more than 50% Phospholipon® 90G,formation of a fine suspension
same,Solubility in words,[4],sparingly soluble
